This experiment relates to ApoE. The experiment can be described thus: apoE secretion by PMA-differentiated THP-1 cells, apoE quantified by ELISA. In kind it is cell-based, human. To be noted: 3 days; for percent change in apoE secretion versus control at 25 µM / percent change in apoE secretion versus control at 50 µM / percent change in apoE secretion versus control at 100 µM: Homo sapiens, THP-1, 72 h. From the text: The bisphosphonate compounds of the invention can modulate (increase or decrease) apoE levels in plasma and in tissues. The activities of the compounds can be determined in an in vitro cell assay comprising determining the modulatory effect of the test compound on the secretion of apoE by an apoE secreting cell line (e.g., a monocyte-macrophage cell line such as the THP-1 cell line, a liver derived cell line such as the HepG2 cell line, an intestinal derived cell line such as the CaCo2 cell line or a brain derived cell line such as the astrocytoma CCF-STTG1 cell line).
THP-1 cell line (ATCC TIB-202) are cultured in RPMI 1640 (with 2 mM of L-glutamine and 2 g/l of glucose, Invitrogen) supplemented with 2 g/l of sodium hydrogen carbonate (Fluka), 10 U/ml of penicillin, 10 μg/ml of streptomycin (Penicillin-Streptomycin, Invitrogen), 20 μM of 2-mercaptoethanol (Fluka) and 10% FCS (Amimed). Cells are incubated at 37° C. and 5% CO2.
Cells are seeded in 24 well tissue culture plates (Falcon), 2×10^5 cells in 500 μl of culture medium per well or 6 well plates for RT-PCR purpose, 1×10^6 cells in 2.5 ml of medium. PMA (Phorbol 12-myristate 13-acetate, Alexis), (stock in DMSO (Fluka) at 1 mg/ml) and other compounds are diluted in ethanol and added to the cells at an ethanol final concentration not exceeding 1%. Same volume of ethanol is added in controls. Plates are incubated for 3 days at 37° C. and 5% CO2 to allow cell differentiation and apoE secretion.
Medium contained in the wells is harvested and centrifuged 5 min at 1200 rpm. Supernatants are store at −20° C. until apoE quantification. The cell pellets are resuspended in PBS and counted with a ZI Coulter Counter. After a wash with PBS, adherent cells in the well bottoms are detached with trypsin-EDTA solution 10× (Invitrogen) diluted in PBS. The reaction is stopped with the addition of culture medium and the detached cells are counted.
ApoE was quantified by ELISA. 96 well plates (Costar) are coated with 5% of gelatine (from porcine skin, Fluka) in carbonate-bicarbonate buffer (Sigma) for 1 hour at 37° C. After removing the coating solution, 100 μl of THP-1 supernatant are added per well, diluted 5 times in buffer (PBS, 1% Top-Block (Juro), 0.1% Tween 20 (Fluka)). The incubation last 1 hour at 37° C., then the wells are washed 3 times with 200 μl of buffer. Plates are incubated for 1 hour at 37° C. with continuous stirring with the primary antibody (goat anti-human apoE IgG, Calbiochem) at a 10000-time dilution in buffer, 100 μl per well. After 3 washes, plates are incubated with the secondary antibody (rabbit anti-goat-IgG peroxidase conjugated, Sigma) diluted 5000 times, 100 μl per well, at 37° C. with shaking. Then the wells are washed 5 more times and the detection is achieved by adding 100 μl per well of o-phenylenediamine dihydrochloride (Sigma) and incubated for 15-20 minutes with shaking at room temperature. When the appropriated colour is reached, the reaction is stopped by adding 50 μl per well of 3 M sulfuric acid (Fluka) with shaking for 1 minute at room temperature. The absorbance is read at 492 nm versus 620 nm with a microplate photometer (Anthos Reader 2001).

Take `CCOP(=O)(OCC)C(c1ccc(OC/C=C(\C)CC/C=C(\C)CCC=C(C)C)cc1)P(=O)(OCC)OCC` [Tetraethyl 1-[4-(trans, trans-3,7,11-trimethyl-dodeca-2,6,10-trienyloxy)-phenyl]-methylidene-1,1-bisphosphonate]: the “% ApoE Change” value stood at 14% (compound 2.5 μM, 1.25 nM PMA); 27% (compound 2.5 μM, 2.5 nM PMA); 46% (compound 5.0 μM, 1.25 nM PMA); 47% (compound 5.0 μM, 2.5 nM PMA); 31% (compound 10 μM, 1.25 nM PMA); 40% (compound 10 μM, 2.5 nM PMA).
As for `CCOP(=O)(CC(c1ccc(OCCN(C)c2ccccn2)cc1)P(=O)(OCC)OCC)OCC` (centres unmarked) [Tetraethyl 1-{4-[2-(methyl-pyridin-2-yl-amino)ethoxy]-phenyl}-ethylidene-1,2-bisphosphonate], the percent change in apoE secretion versus control at 25 µM by setting is: (compound 25 μM, 1.25 nM PMA) 77%; (compound 25 μM, 2.5 nM PMA) 110%. For the same compound, the percent change in apoE secretion versus control at 50 µM (compound 50 μM, 1.25 nM PMA) is 202% and the percent change in apoE secretion versus control at 50 µM (compound 50 μM, 2.5 nM PMA) was determined as 124%. The percent change in apoE secretion versus control at 100 µM by setting is: (compound 100 μM, 1.25 nM PMA) 569%; (compound 100 μM, 2.5 nM PMA) 206%.
As for `CCOP(=O)(OCC)C(c1ccc(OCCCN(C)c2ccccn2)cc1)P(=O)(OCC)OCC` [Tetraethyl 1-{4-[3-(methyl-pyridin-2-yl-amino)-propoxy]-phenyl}-methylidene-1,1-bisphosphonate], the percent change in apoE secretion versus control at 25 µM by setting is: (compound 25 μM, 1.25 nM PMA) 375%; (compound 25 μM, 2.5 nM PMA) 557%.
Consider `CC(C)OP(=O)(OC(C)C)C(c1ccc(O)cc1)P(=O)(OC(C)C)OC(C)C` [Tetraisopropyl 1-(4-hydroxy-phenyl)-methylidene-1,1-bisphosphonate], for which the percent change in apoE secretion versus control at 25 µM came out at 290% (compound 25 μM, 1.25 nM PMA) and 52% (compound 25 μM, 2.5 nM PMA). The same compound had a percent change in apoE secretion versus control at 50 µM (compound 50 μM, 1.25 nM PMA) of 399% and a percent change in apoE secretion versus control at 50 µM (compound 50 μM, 2.5 nM PMA) of 35%. Further, the percent change in apoE secretion versus control at 100 µM runs as follows: (compound 100 μM, 1.25 nM PMA) 488%; (compound 100 μM, 2.5 nM PMA) 73%.
Turning to `COP(=O)(OC)C(c1ccc(O)cc1)P(=O)(OC)OC` [Tetramethyl 1-(4-hydroxy-phenyl)methylidene-1,1-bisphosphonate], the “% ApoE Change” value is, setting by setting: (compound 25 μM, 1.25 nM PMA) −7%; (compound 25 μM, 2.5 nM PMA) −17%; (compound 50 μM, 1.25 nM PMA) −27%; (compound 50 μM, 2.5 nM PMA) −25%; (compound 100 μM, 1.25 nM PMA) −19%; (compound 100 μM, 2.5 nM PMA) −10%.
